Where a name gives a salt, the structure may show the parent alone.
test system: RSV Long strain; test: Viral cytopathic effect (CPE) assay, anti-RSV activity; assay type: cell-based, Respiratory Syncytial Virus; conditions: human respiratory syncytial virus, 144 h, RSV Long strain (ATCC); cell viability after 6 days, Cell Counting kit-8
Summary of the method: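 EC50 was derived from CCK-8 viability at 450/630 nm measured 6 days post-infection. Infection used enough RSV Long strain for approximately 80–90% cytopathic effect, in the presence of half-log serially diluted compound. Cells were plated the day before at 6×10^3 per well in DMEM/10% FBS.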

| EC50 [µM] | SMILES |
| --- | --- |
| 0.021 | Cc1ccc2nc(N3CCS(=O)(=O)c4ccccc4C3)cc(NCCCNC3COC3)c2c1 [Example 45-1, N-[2-(1,1-Dioxido-2,3-dihydro-1,4-benzothiazepin-4(5H)-yl)-6-methylquinolin-4-yl]-N′-(oxetan-3-yl)propane-1,3-diamine] |
| 0.253 | Cc1ccc2nc(N3CCS(=O)(=O)c4ccccc4C3)cc(N3CCC(NC4COC4)C3)c2c1 (stereo not shown) [Example 45-2, 1-[2-(1,1-Dioxido-2,3-dihydro-1,4-benzothiazepin-4(5H)-yl)-6-methylquinolin-4-yl]-N-(oxetan-3-yl)pyrrolidin-3-amine] |
| 0.031 | Cc1ccc2nc(N3CCS(=O)(=O)c4ccccc4C3)cc(NCCNC3COC3)c2c1 [Example 45-3, N-[2-(1,1-Dioxido-2,3-dihydro-1,4-benzothiazepin-4(5H)-yl)-6-methylquinolin-4-yl]-N′-(oxetan-3-yl)ethane-1,2-diamine] |
| 7.88 | Cc1ccc2nc(N3CCS(=O)(=O)c4ccccc4C3)cc(N3C[C@H](O)CC3=O)c2c1 [Example 47-1, (4R)-1-[2-(1,1-Dioxido-2,3-dihydro-1,4-benzothiazepin-4(5H)-yl)-6-methylquinolin-4-yl]-4-hydroxypyrrolidin-2-one] |
| 5.82 | Cc1ccc2nc(N3CCS(=O)(=O)c4ccccc4C3)cc(NC(=O)C3CNC(=O)C3)c2c1 (stereo not shown) [Example 47-2, N-[2-(1,1-Dioxido-2,3-dihydro-1,4-benzothiazepin-4(5H)-yl)-6-methylquinolin-4-yl]-5-oxopyrrolidine-3-carboxamide] |
| 5.69 | Cc1ccc2nc(N3CCS(=O)(=O)c4ccccc4C3)cc(Nc3cc[nH]n3)c2c1 [Example 47-3, 2-(1,1-Dioxido-2,3-dihydro-1,4-benzothiazepin-4(5H)-yl)-6-methyl-N-(1H-pyrazol-3-yl)quinolin-4-amine] |
| 0.993 | Cc1ccc2nc(N3CCS(=O)(=O)c4ccccc4C3)cc(NC(=O)c3cccnc3)c2c1 [Example 47-4, N-[2-(1,1-Dioxido-2,3-dihydro-1,4-benzothiazepin-4(5H)-yl)-6-methylquinolin-4-yl]pyridine-3-carboxamide] |
| 0.835 | Cc1ccc2nc(N3CCS(=O)(=O)c4ccccc4C3)cc(NC(=O)C3CCCCN3)c2c1 (stereo not shown) [Example 47-5, N-[2-(1,1-Dioxido-2,3-dihydro-1,4-benzothiazepin-4(5H)-yl)-6-methylquinolin-4-yl]piperidine-2-carboxamide] |
| 2.31 | Cc1ccc2nc(N3CCS(=O)(=O)c4ccccc4C3)cc(NC(=O)Cc3ccccn3)c2c1 [Example 47-6, N-[2-(1,1-Dioxido-2,3-dihydro-1,4-benzothiazepin-4(5H)-yl)-6-methylquinolin-4-yl]-2-(pyridin-2-yl)acetamide] |
| 3.41 | Cc1ccc2nc(N3CCS(=O)(=O)c4ccccc4C3)cc(NS(C)(=O)=O)c2c1 [Example 47-7, N-[2-(1,1-Dioxido-2,3-dihydro-1,4-benzothiazepin-4(5H)-yl)-6-methylquinolin-4-yl]methanesulfonamide trifluoroacetate] |
| 0.432 | Cc1ccc2nc(N3CCS(=O)(=O)c4ccccc4C3)cc(NC(=O)c3cnccn3)c2c1 [Example 47-8, N-[2-(1,1-Dioxido-2,3-dihydro-1,4-benzothiazepin-4(5H)-yl)-6-methylquinolin-4-yl]pyrazine-2-carboxamide] |
| 0.192 | Cc1ccc2nc(N3CCS(=O)(=O)c4ccccc4C3)cc(NC(=O)CO)c2c1 [Example 47-9, N-[2-(1,1-Dioxido-2,3-dihydro-1,4-benzothiazepin-4(5H)-yl)-6-methylquinolin-4-yl]-2-hydroxyacetamide] |
| 0.931 | Cc1ccc2nc(N3CCS(=O)(=O)c4ccccc4C3)cc(NC(=O)Nc3ccccc3)c2c1 [Example 50-1, 1-[2-(1,1-Dioxido-2,3-dihydro-1,4-benzothiazepin-4(5H)-yl)-6-methylquinolin-4-yl]-3-phenylurea] |
| 2.42 | CCNC(=O)Nc1cc(N2CCS(=O)(=O)c3ccccc3C2)nc2ccc(C)cc12 [Example 50-2, 1-[2-(1,1-Dioxido-2,3-dihydro-1,4-benzothiazepin-4(5H)-yl)-6-methylquinolin-4-yl]-3-ethylurea] |

More lines, now with the values behind:

| SMILES | EC50 [µM] |
| --- | --- |
| CCC(N)C(=O)Nc1cc(N2CCS(=O)(=O)c3ccccc3C2)nc2ccc(C)cc12 (stereo not shown) [Example 40-4, 2-Amino-N-[2-(1,1-dioxido-2,3-dihydro-1,4-benzothiazepin-4(5H)-yl)-6-methylquinolin-4-yl]butanamide] | 2.65 |
| COC(C)(C)C(=O)Nc1cc(N2CCS(=O)(=O)c3ccccc3C2)nc2ccc(C)cc12 [Example 41, N-[2-(1,1-Dioxido-2,3-dihydro-1,4-benzothiazepin-4(5H)-yl)-6-methylquinolin-4-yl]-2-methoxy-2-methylpropanamide] | 2.63 |
| Cc1ccc2nc(N3CCS(=O)(=O)c4ccccc4C3)cc(NCCC(N)C(F)(F)F)c2c1 (stereo not shown) [Example 42-1, N^˜1^˜-[2-(1,1-Dioxido-2,3-dihydro-1,4-benzothiazepin-4(5H)-yl)-6-methylquinolin-4-yl]-4,4,4-trifluorobutane-1,3-diamine] | 8.95 |
| Cc1ccc2nc(N3CCS(=O)(=O)c4ccccc4C3)cc(NC(=O)CCN)c2c1 [Example 42-2, N-[2-(1,1-Dioxido-2,3-dihydro-1,4-benzothiazepin-4(5H)-yl)-6-methylquinolin-4-yl]-beta-alaninamide] | 0.037 |
| CCNC1(CNc2cc(N3CCS(=O)(=O)c4ccccc4C3)nc3ccc(C)cc23)COC1 [Example 43, 2-(1,1-Dioxido-2,3-dihydro-1,4-benzothiazepin-4(5H)-yl)-N-{[3-(ethylamino)oxetan-3-yl]methyl}-6-methylquinolin-4-amine] | 0.017 |
| Cc1ccc2nc(N3CCS(=O)(=O)c4ccccc4C3)cc(NC3CCN(C4COC4)C3)c2c1 (stereo not shown) [Example 44-1, 2-(1,1-Dioxido-2,3-dihydro-1,4-benzothiazepin-4(5H)-yl)-6-methyl-N-[1-(oxetan-3-yl)pyrrolidin-3-yl]quinolin-4-amine] | 0.084 |
| CCN(CCNc1cc(N2CCS(=O)(=O)c3ccccc3C2)nc2ccc(C)cc12)C1COC1 [Example 44-2, N′-[2-(1,1-Dioxido-2,3-dihydro-1,4-benzothiazepin-4(5H)-yl)-6-methylquinolin-4-yl]-N-ethyl-N-(oxetan-3-yl)ethane-1,2-diamine] | 1.55 |
| Cc1ccc2nc(N3CCS(=O)(=O)c4ccccc4C3)cc(NCCNc3ccccn3)c2c1 [Example 46, N-[2-(1,1-Dioxido-2,3-dihydro-1,4-benzothiazepin-4(5H)-yl)-6-methylquinolin-4-yl]-N′-(pyridin-2-yl)ethane-1,2-diamine] | 0.682 |
| Cc1ccc2nc(N3CCS(=O)(=O)c4ccccc4C3)cc(NC(=O)c3ccccn3)c2c1 [Example 48, N-[2-(1,1-Dioxido-2,3-dihydro-1,4-benzothiazepin-4(5H)-yl)-6-methylquinolin-4-yl]pyridine-2-carboxamide] | 0.009 |
| Cc1ccc2nc(N3CCS(=O)(=O)c4ccccc4C3)cc(NC(=O)C3CCN3)c2c1 (stereo not shown) [Example 49, N-[2-(1,1-Dioxido-2,3-dihydro-1,4-benzothiazepin-4(5H)-yl)-6-methylquinolin-4-yl]azetidine-2-carboxamide] | 0.721 |
| NCCCNc1cc(N2CCS(=O)(=O)c3ccccc3C2)nc2ccc(C3CC3)cc12 [Example 51, N-[6-Cyclopropyl-2-(1,1-dioxido-2,3-dihydro-1,4-benzothiazepin-4(5H)-yl)quinolin-4-yl]propane-1,3-diamine] | 0.056 |

Reference: patent US8871756B2 (Hoffmann-La Roche Inc., priority 2011, dated 2014)
